ChEMBL document CHEMBL1140121, “X-ray crystal structure of human heme oxygenase-1 in complex with 1-(adamantan-1-yl)-2-(1H-imidazol-1-yl)ethanone: a common binding mode for imidazole-based heme oxygenase-1 inhibitors” (J Med Chem, 2008)

Key:
[1] = target: T1, Heme oxygenase 1 (Homo sapiens) (UniProt P09601); assay: Residual activity of human recombinant HO1 expressed in Escherichia coli DH5alpha assessed as remaining heme at 25 uM by spectrophotometry in absence of L-ascorbic acid relative to control
T1 sequence (whole entry): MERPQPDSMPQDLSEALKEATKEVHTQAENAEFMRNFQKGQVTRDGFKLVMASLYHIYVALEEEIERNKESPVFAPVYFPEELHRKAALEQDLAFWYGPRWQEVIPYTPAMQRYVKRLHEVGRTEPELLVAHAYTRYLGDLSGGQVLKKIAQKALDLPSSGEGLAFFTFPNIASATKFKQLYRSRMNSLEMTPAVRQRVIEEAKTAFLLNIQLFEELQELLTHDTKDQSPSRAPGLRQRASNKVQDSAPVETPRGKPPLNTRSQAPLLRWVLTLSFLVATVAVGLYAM

[2] = target: T1, Heme oxygenase 1 (Homo sapiens); assay: Residual activity of human recombinant HO1 expressed in Escherichia coli DH5alpha assessed as remaining heme at 50 uM by spectrophotometry in absence of L-ascorbic acid relative to control
[3] = target: T1, Heme oxygenase 1 (Homo sapiens); assay: Inhibition of human recombinant HO1 expressed in Escherichia coli DH5alpha assessed as heme degradation at 25 uM by spectrophotometry in presence of L-ascorbic acid relative to control; parameters: scale not given: the % may be the effect or the level left
[4] = target: T1, Heme oxygenase 1 (Homo sapiens); assay: Inhibition of human recombinant HO1 expressed in Escherichia coli DH5alpha assessed as heme degradation at 10 uM by spectrophotometry in presence of L-ascorbic acid relative to control

| SMILES | residual activity [1] | residual activity [2] | Activity [3] | inhibition [4] |
| --- | --- | --- | --- | --- |
| Clc1ccc(CCC2(Cn3ccnc3)OCCO2)cc1 | 65% | 80% | 15% | 39% |
| O=C(Cn1ccnc1)C12CC3CC(CC(C3)C1)C2 | 44% | 54% | – | – |
